Laboratory results from PubChem BioAssay AID1963445 (Molecular Pharmacology Branch, DTP, NCI, 2024).

Tested on: MCF7 complex spheroid growth, % test/control
Assay: Anticancer human tumor MCF7 cell line growth inhibition [Asc];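 further: spheroids exposed to compounds for 7 days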;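 on viability, T/C: 100% = DMSO vehicle control wells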
Details: for IC50: curve of first compound; for viability, T/C: stronger effect = lower value
Procedure: Multicellular complex tumor spheroid response to apoptosis pathway targeting inhibitors Alrizomadlin, Pelcitoclax, and Dasminapant in combination with a variety of drugs and investigational agents in selected tumor cell lines
The MDM2 inhibitor alrizomadlin, the Bcl-2/Bcl-xL inhibitor pelcitoclax, and the IAPs inhibitor dasminapant were evaluated both individually and in combination with standard of care and investigational anticancer small molecules within a complex spheroid model of solid tumors. . Complex spheroids include a stromal component modeled by human endothelial cells (HUVEC) and fibroblasts modeled by human mesenchymal stem cells (MSCs). The concentration ranges selected for each drug and investigational agent were based upon clinically achievable concentrations if the clinical Cmax of the agent was known.
Compounds. The drugs and investigational agents: alrizomadlin (APG-115; NSC831270), pelcitoclax (APG-1252; NSC835773), dasminapant (APG-1387;NSC834197), TAK-243 (NSC785004), copanlisib (NSC809693), olaparib (NSC753686), talazoparib (NSC767125), cobimetinib (NSC 768068), eltanexor (KPT-8602, NSC 794443), abemaciclib (NSC 768073), sotorasib (NSC818433), adagrasib (NSC 831453), MRTX-1133 (NSC 836407), Iadademestat (ORY1001, NSC 806812), and RMC-4630 (NSC839698), were obtained from the NCI Developmental Therapeutics Program Chemical Repository. The FDA-approved anticancer drug set is available from the Developmental Therapeutics Program at https://dtp.cancer.gov/organization/dscb/obtaining/available plates.htm. […] The stock solutions were prepared in dimethyl sulfoxide (DMSO, Sigma-Aldrich, St. Louis, MO, cat. D2650) at 800-fold the tested concentration and stored at -70 degrees C prior to their use. All drugs and investigational agents were tested over a range starting from a high concentration at or near the clinical Cmax and decreasing in half-log increments. If the clinical Cmax for an agent had not been determined, the highest concentration tested was 10 microM.
The patient-derived cancer (PDC) cell lines include five colon adenocarcinomas: 186277-243-T-J2-PDC, 616215-338-R-J1-PDC, 439559-082-T-J2-PDC, 463943-066-T-J2-PDC, and 519858-162-T-J1-PDC; three pancreatic carcinomas: 323965-272-R-J2-PDC, 521955-158-R6-J3-PDC, and 521955-158-R2-J5-PDC; two uterine sarcomas: 327498-152-R-J2-PDC and 993429-296-R-J1-PDC; two rhabdomyosarcomas: 755483-174-R-J1-PDC and 772245-204-R-J1-PDC; two soft tissue sarcomas: 126254-015-R-J1-PDC and 494315-158-R-J1-PDC; two malignant fibrous histiocytomas: 317291-083-R-J1-PDC and 596521-263-R-J1-PDC; two breast carcinomas: 171881-019-R-J1-PDC and 885512-296-R-J2-PDC; and one ovarian carcinoma: 6556581-035-R-J-PDC were obtained from the NCI PDMR, (https://pdmr.cancer.gov). The established cell lines HSSY-2 synovial sarcoma (RRID:CVCL 8719), SYO-1 synovial sarcoma (RRID:CVCL_7146), MPNST malignant peripheral neural sheath tumor were obtained from the Sloan Kettering Institute. The following established cell lines were purchased from the American Type Culture Collection (ATCC, Manassas, VA), Sor the received from the NCI repository:, PANC-1 pancreatic carcinoma (CRL-1469, RRID:CVCL_0480), OVCAR-5 ovarian carcinoma (RRID:CVCL_1628), OVCAR-8 ovarian carcinoma (RRID:CVCL_1629), , MCF-7 breast carcinoma (CRL-12584, RRID:CVCL_0031), MDA-MB-231 breast carcinoma (CRL-12532, RRID:CVCL_0062), NCI-H1876 small cell lung carcinoma (CRL-5902, RRID:CVCL_1503), NCI-H510A small cell lung carcinoma (HTB-184, RRID:CVCL_1565), NCI-H1417 (CRL-5869, RRID:CVCL_1469), and NCI-H196 small cell lung carcinoma (CRL-5823, RRID:CVCL_1509). Dr. Peter Houghton (Greehey Children's Cancer Research Institute, University of Texas Health Science Center, San Antonio, TX) provided Rh-18 rhabdomyosarcoma (RRID:CVCL_1659). Pooled donor human umbilical vein endothelial cells (HUVEC, Lonza, cat. CC-2519) and human mesenchymal stem cells (hMSC, Lonza, cat. PT-2501) were purchased from Lonza (Walkersville, MD).
Cell Culture. […]

[1] = second compound 0.00949 µM, first compound 0.00316 µM
[2] = second compound 0.00949 µM, first compound 0.01 µM
[3] = second compound 0.00949 µM, first compound 0.0316 µM
[4] = second compound 0.00949 µM, first compound 0.1 µM
[5] = second compound 0.00949 µM, first compound 0.316 µM
[6] = second compound 0.00949 µM, first compound 1 µM
[7] = second compound 0.03 µM, first compound 0.00316 µM
[8] = second compound 0.03 µM, first compound 0.01 µM
[9] = second compound 0.03 µM, first compound 0.0316 µM
[10] = second compound 0.03 µM, first compound 0.1 µM
[11] = second compound 0.03 µM, first compound 0.316 µM
[12] = second compound 0.03 µM, first compound 1 µM
[13] = second compound 0.0949 µM, first compound 0.00316 µM
[14] = second compound 0.0949 µM, first compound 0.01 µM
[15] = second compound 0.0949 µM, first compound 0.0316 µM
[16] = second compound 0.0949 µM, first compound 0.1 µM
[17] = second compound 0.0949 µM, first compound 0.316 µM
[18] = second compound 0.0949 µM, first compound 1 µM
[19] = second compound 0.3 µM, first compound 0.00316 µM
[20] = second compound 0.3 µM, first compound 0.01 µM
[21] = second compound 0.3 µM, first compound 0.0316 µM
[22] = second compound 0.3 µM, first compound 0.1 µM
[23] = second compound 0.3 µM, first compound 0.316 µM
[24] = second compound 0.3 µM, first compound 1 µM
[25] = second compound 0.949 µM, first compound 0.00316 µM
[26] = second compound 0.949 µM, first compound 0.01 µM
[27] = second compound 0.949 µM, first compound 0.0316 µM
[28] = second compound 0.949 µM, first compound 0.1 µM
[29] = second compound 0.949 µM, first compound 0.316 µM
[30] = second compound 0.949 µM, first compound 1 µM
[31] = second compound 3 µM, first compound 0.00316 µM
[32] = second compound 3 µM, first compound 0.01 µM
[33] = second compound 3 µM, first compound 0.0316 µM
[34] = second compound 3 µM, first compound 0.1 µM
[35] = second compound 3 µM, first compound 0.316 µM
[36] = second compound 3 µM, first compound 1 µM

Question: For `CCN1CCN(Cc2ccc(Nc3ncc(F)c(-c4cc(F)c5nc(C)n(C(C)C)c5c4)n3)nc2)CC1` + CCN1C(C(=O)NC23CCC(C(=O)O)(CC2)CC3)C(c2cccc(Cl)c2F)C2(C(=O)Nc3cc(Cl)ccc32)C12CCCCC2, which IC50 (second compound 0.00949 µM) is on record?
Answer: > 1000 nM

Question: And the IC50 (second compound 0.03 µM)?
Answer: > 1000 nM

Question: And the IC50 (second compound 0.0949 µM)?
Answer: < 3.16 nM

Question: What about the IC50 (second compound 0.3 µM) of the same molecule?
Answer: < 3.16 nM

Question: And the IC50 (second compound 0.949 µM)?
Answer: < 3.16 nM

Question: And the IC50 (second compound 3 µM)?
Answer: < 3.16 nM

Question: And the viability, T/C [1]?
Answer: 99%

Question: What about the viability, T/C [2] of the same molecule?
Answer: 112%

Question: And the viability, T/C [3]?
Answer: 90.4%

Question: What about the viability, T/C [4] of the same molecule?
Answer: 92.4%

Question: What about the viability, T/C [5] of the same molecule?
Answer: 85.6%

Question: What about the viability, T/C [6] of the same molecule?
Answer: 71.7%

Question: What about the viability, T/C [7] of the same molecule?
Answer: 120%

Question: And the viability, T/C [8]?
Answer: 99.9%

Question: And the viability, T/C [9]?
Answer: 88.2%

Question: And the viability, T/C [10]?
Answer: 63.7%

Question: And the viability, T/C [11]?
Answer: 59%

Question: What about the viability, T/C [12] of the same molecule?
Answer: 66.1%

Question: What about the viability, T/C [13] of the same molecule?
Answer: 53.9%

Question: What about the viability, T/C [14] of the same molecule?
Answer: 45.3%

Question: What about the viability, T/C [15] of the same molecule?
Answer: 41.8%

Question: And the viability, T/C [16]?
Answer: 42.9%

Question: And the viability, T/C [17]?
Answer: 40.3%

Question: And the viability, T/C [18]?
Answer: 47.1%

Question: What about the viability, T/C [19] of the same molecule?
Answer: 31.8%

Question: And the viability, T/C [20]?
Answer: 30.2%

Question: What about the viability, T/C [21] of the same molecule?
Answer: 27.7%

Question: What about the viability, T/C [22] of the same molecule?
Answer: 30.9%

Question: What about the viability, T/C [23] of the same molecule?
Answer: 34.5%

Question: And the viability, T/C [24]?
Answer: 40.2%

Question: What about the viability, T/C [25] of the same molecule?
Answer: 20.6%

Question: And the viability, T/C [26]?
Answer: 17.6%

Question: And the viability, T/C [27]?
Answer: 20.5%

Question: And the viability, T/C [28]?
Answer: 21.5%

Question: What about the viability, T/C [29] of the same molecule?
Answer: 24.9%

Question: And the viability, T/C [30]?
Answer: 20%

Question: And the viability, T/C [31]?
Answer: 13.1%

Question: What about the viability, T/C [32] of the same molecule?
Answer: 14%

Question: What about the viability, T/C [33] of the same molecule?
Answer: 14.8%

Question: What about the viability, T/C [34] of the same molecule?
Answer: 14.6%

Question: And the viability, T/C [35]?
Answer: 12.7%

Question: What about the viability, T/C [36] of the same molecule?
Answer: 13.4%

Question: Which results are given for `O=C(c1ccc(F)c(F)c1Nc1ccc(I)cc1F)N1CC(O)([C@@H]2CCCCN2)C1` + CCN1C(C(=O)NC23CCC(C(=O)O)(CC2)CC3)C(c2cccc(Cl)c2F)C2(C(=O)Nc3cc(Cl)ccc32)C12CCCCC2?
Answer: IC50 (second compound 0.00949 µM): > 1000 nM; IC50 (second compound 0.03 µM): > 1000 nM; IC50 (second compound 0.0949 µM): < 3.16 nM; IC50 (second compound 0.3 µM): < 3.16 nM; IC50 (second compound 0.949 µM): < 3.16 nM; IC50 (second compound 3 µM): < 3.16 nM; viability, T/C [1]: 104%; viability, T/C [2]: 101%; viability, T/C [3]: 111%; viability, T/C [4]: 97.2%; viability, T/C [5]: 94.9%; viability, T/C [6]: 100%; viability, T/C [7]: 105%; viability, T/C [8]: 99.4%; viability, T/C [9]: 93.9%; viability, T/C [10]: 96.6%; viability, T/C [11]: 81.4%; viability, T/C [12]: 63.5%; viability, T/C [13]: 50.6%; viability, T/C [14]: 44%; viability, T/C [15]: 46.5%; viability, T/C [16]: 44.4%; viability, T/C [17]: 44.8%; viability, T/C [18]: 38.7%; viability, T/C [19]: 32.1%; viability, T/C [20]: 28%; viability, T/C [21]: 26.7%; viability, T/C [22]: 26.6%; viability, T/C [23]: 33%; viability, T/C [24]: 24.5%; viability, T/C [25]: 16.4%; viability, T/C [26]: 19.6%; viability, T/C [27]: 14.8%; viability, T/C [28]: 15.3%; viability, T/C [29]: 13.4%; viability, T/C [30]: 13.3%; viability, T/C [31]: 14.3%; viability, T/C [32]: 14.3%; viability, T/C [33]: 9.2%; viability, T/C [34]: 12.3%; viability, T/C [35]: 14.2%; viability, T/C [36]: 11%
